These are literature values, as cited in patent US5989558A, “Method of using rosmarinus officinalis for treating various diseases” (priority 1997, dated 1999).

The conditions of data set [1]: 400 mg three times a day.

Like-named read-outs stand apart in the source and are kept apart here.

For the compound `Fc1ccc(C(c2ccc(F)cc2)N2CCN(C/C=C/c3ccccc3)CC2)cc1` [flunarizine], the “nausea as side effect” value (treatment of dizziness, poor hearing, and tinnitus) is recorded as “all of the drugs cause nausea”.

Take `CC(=O)CCCCn1c(=O)c2c(ncn2C)n(C)c1=O` [pentoxifylline]: under “in vivo”, the “nausea as side effect” value was “all of the drugs cause nausea”. In data set [1] (after 60 days), the ulcers healed is recorded as 7 ulcers. Besides, the further ulcer healed entry in data set [1] (after 120 days) was “Another ulcer healed after 120 days”. In addition, the “patients able to complete the six month program” value in data set [1] (of 12 patients, limited by side effects) is on record as 9 patients. Besides, the ulcer size reduction entry in data set [1] (one ulcer, after six months) is on record as “reduced in size from 4 cm to 2 cm”.
